Reference: patent publication US6783949B1, “Processes for determining whether a test substance contains lipases or lipase inhibitors” (Aventis Pharma Deutschland GmbH, priority 1999, dated 2004)

Biological target: T1, HSL (Rattus norvegicus, UniProt P15304)
T1 construct: The partially purified HSL can be stored at −70° C. for 4 to 6 weeks; from tissue; host or cells: rat epididymal fat cells (male Wistar rats)
T1 sequence (P15304 1-768 isoform P15304-2): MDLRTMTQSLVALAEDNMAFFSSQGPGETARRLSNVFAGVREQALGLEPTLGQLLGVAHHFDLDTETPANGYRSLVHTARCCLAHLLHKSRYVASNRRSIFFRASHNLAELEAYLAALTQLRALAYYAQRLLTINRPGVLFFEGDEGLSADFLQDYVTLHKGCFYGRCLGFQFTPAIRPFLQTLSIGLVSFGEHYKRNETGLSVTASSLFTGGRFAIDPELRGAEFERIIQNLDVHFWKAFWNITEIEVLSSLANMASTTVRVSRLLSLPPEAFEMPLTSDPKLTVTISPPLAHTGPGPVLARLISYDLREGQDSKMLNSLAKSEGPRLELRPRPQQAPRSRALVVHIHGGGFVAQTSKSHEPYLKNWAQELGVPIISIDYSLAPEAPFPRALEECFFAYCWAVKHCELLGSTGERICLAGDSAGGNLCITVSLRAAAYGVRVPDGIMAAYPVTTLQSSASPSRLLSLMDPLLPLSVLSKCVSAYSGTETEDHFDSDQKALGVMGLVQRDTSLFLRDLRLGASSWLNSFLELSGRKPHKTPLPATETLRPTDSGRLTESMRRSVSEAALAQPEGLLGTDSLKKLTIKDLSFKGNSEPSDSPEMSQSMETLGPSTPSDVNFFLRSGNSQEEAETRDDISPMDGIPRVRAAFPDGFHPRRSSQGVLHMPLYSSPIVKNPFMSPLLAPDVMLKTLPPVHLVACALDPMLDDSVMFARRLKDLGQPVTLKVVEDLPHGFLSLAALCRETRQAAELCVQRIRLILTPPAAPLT
Experiment: Indirect NAG assay (extinction increase at 481 nm)
Type: biochemical
Description: A typical reaction is carried out at 30° C. for 60 min, for example in 1.5 ml Eppendorf vessels or 96-hole plates. […] 180 μl of the substrate solution (20 μg/ml of phosphatidylcholine, 10 μg/ml of phosphatidylinositol, 50 μg/ml of NAG in assay buffer) are added. After a preincubation for 15 min at 30° C., 20 μl of HSL in assay buffer are pipetted in and the extinction is immediately measured (see above) at 481 nm in a cuvette photometer (0.5 ml cuvette) or microtiter plate reader. After a certain incubation time, which is variable and depends on the chosen enzyme concentration and can be between 2 and 240 minutes, in this case incubation at 30° C. for 60 min, the extinction is measured again. The increase in the extinction in the yellow region, in this case at 481 nm, is a measure of the enzyme activity.
Isolated rat fat cells are obtained from epididymal fatty tissue from untreated male rats (Wistar, 220-250 g) by collagenase treatment according to published processes. The fat cells from 10 rats are washed three times by flotation with 50 ml each of homogenization buffer ([…], pH 7.4, 0.25 M sucrose, 1 mM ethylenediamine-N,N,N′,N′-tetraacetic acid (EDTA), 1 mM dithiothreitol (DTT), 10 μg/ml of leupeptin, 10 μg/ml of antipain, 20 μg/ml of pepstatin) and finally taken up in 10 ml of homogenization buffer. The fat cells are homogenized in a Teflon-in-glass homogenizer (Braun-Melsungen) by 10 strokes at 1500 rpm and 15° C. The homogenizate is centrifuged (Sorvall SM24 tubes, 5000 rpm, 10 min, 4° C.). The […] between the overlying fatty layer and the pellet is removed and the centrifugation is repeated. The […] resulting from this is centrifuged again (Sorvall SM24 tubes, 20,000 rpm, 45 min, 4° C.). […] After incubation for 60 min at 4° C. (shake at intervals of 15 min), the batch is centrifuged (Sorvall SM24 tubes, 3000 rpm, 10 min, 4° C.). The supernatant is brought to pH 5.2 by addition of glacial acetic acid and incubated at 4° C. for 30 min. […] The suspension is dialyzed overnight at 4° C. against 25 mM TRIS/HCl, pH 7.4, 50% glycerol, 1 mM DTT, and 10 μg/ml of leupeptin, pepstatin, and antipain and then applied to a hydroxylapatite column (0.1 g per 1 ml of suspension, equilibrated with 10 mM potassium phosphate, pH 7.0, 30% glycerol, 1 mM DTT). The column is washed with four volumes of equilibration buffer at a flow rate of 20 to 30 ml/h. The HSL is eluted with a volume of equilibration buffer which contains 0.5 M potassium phosphate, then dialyzed (see above) and concentrated 5 to 10 times by ultrafiltration (Amicon Diaflo PM 10 filter) at 4° C. The partially purified HSL can be stored at −70° C. for 4 to 6 weeks.
6 mg of phosphatidylcholine and 6 mg of phosphatidylinositol are dissolved in 1 ml of chloroform each. 10 mg of NAG are dissolved in 1 ml of chloroform. […] The chloroform (225 μl total volume) is completely removed by overblowing with a stream of N2. The dried substrate can be stored at 4° C. for up to three days. For the preparation of the phospholipid vesicles/micelles having intercalated NAG (on the test day), the dried substrate is taken up in 20 ml of assay buffer (25 mM TRIS/HCl, pH 7.4; 150 mM NaCl) and two ultrasonic treatments with an ultrasonic probe (Branson Sonifier type 11, standard microtip): 1st treatment setting 2, 2×1 min, in between in each case 1 min on ice; 2nd treatment setting 4, 2×1 min, in between in each case 1 min on ice. […] Before use as a substrate (within the next 2 h), the solution is additionally incubated on ice for 15 min.
The assay is carried out at 30° C. for 60 min in 1.5 ml Eppendorf vessels or 96-hole plates.

[1] = HSL 40 μg, 60 min, NAG 0.05 mg/ml
[2] = HSL 60 μg, 60 min, NAG 0.05 mg/ml
[3] = HSL 80 μg, 60 min, NAG 0.05 mg/ml

## O=C(CCCCCCCCCCCNc1ccc([N+](=O)[O-])c2nonc12)OCC(O)CO (centres unmarked) [Compound (3)]
HSL 40 μg, 20 min, NAG 0.05 mg/ml
  Increase in the absorption at 481 nm: 477 ± 182 arb. units
HSL 40 μg, 30 min, NAG 0.05 mg/ml
  Increase in the absorption at 481 nm: 2249 ± 286 arb. units
HSL 40 μg, 45 min, NAG 0.05 mg/ml
  Increase in the absorption at 481 nm: 2968 ± 321 arb. units
[1]
  Absorption change, Decrease, 550 nm: 91 ± 19 arb. units
  Absorption change, Increase, 481 nm: 4623 ± 511 arb. units
  Increase in the absorption at 481 nm: 4065 ± 399 arb. units
HSL 40 μg, 75 min, NAG 0.05 mg/ml
  Increase in the absorption at 481 nm: 4834 ± 462 arb. units
HSL 40 μg, 90 min, NAG 0.05 mg/ml
  Increase in the absorption at 481 nm: 5472 ± 813 arb. units
HSL 40 μg, 120 min, NAG 0.05 mg/ml
  Increase in the absorption at 481 nm: 5702 ± 531 arb. units
HSL 40 μg, 180 min, NAG 0.05 mg/ml
  Increase in the absorption at 481 nm: 5961 ± 560 arb. units
[2]
  Absorption change, Decrease, 550 nm: 62 ± 17 arb. units
  Absorption change, Increase, 481 nm: 5466 ± 602 arb. units
[3]
  Absorption change, Decrease, 550 nm: 54 ± 15 arb. units
  Absorption change, Increase, 481 nm: 5913 ± 485 arb. units
HSL, conditions optimized for HSL
  Activity relative to HSL: 100%
NAG 0.002 mg/ml, HSL 5 μg, 60 min
  Increase in the absorption at 481 nm: 61 ± 9 arb. units
NAG 0.002 mg/ml, HSL 20 μg, 60 min
  Increase in the absorption at 481 nm: 194 ± 23 arb. units
NAG 0.002 mg/ml, HSL 40 μg, 60 min
  Increase in the absorption at 481 nm: 525 ± 77 arb. units
NAG 0.005 mg/ml, HSL 5 μg, 60 min
  Increase in the absorption at 481 nm: 109 ± 17 arb. units
NAG 0.005 mg/ml, HSL 20 μg, 60 min
  Increase in the absorption at 481 nm: 342 ± 58 arb. units
NAG 0.005 mg/ml, HSL 40 μg, 60 min
  Increase in the absorption at 481 nm: 1420 ± 122 arb. units
NAG 0.01 mg/ml, HSL 5 μg, 60 min
  Increase in the absorption at 481 nm: 227 ± 31 arb. units
NAG 0.01 mg/ml, HSL 20 μg, 60 min
  Increase in the absorption at 481 nm: 852 ± 77 arb. units
NAG 0.01 mg/ml, HSL 40 μg, 60 min
  Increase in the absorption at 481 nm: 2745 ± 264 arb. units
NAG 0.02 mg/ml, HSL 5 μg, 60 min
  Increase in the absorption at 481 nm: 388 ± 45 arb. units
NAG 0.02 mg/ml, HSL 20 μg, 60 min
  Increase in the absorption at 481 nm: 1758 ± 195 arb. units
NAG 0.02 mg/ml, HSL 40 μg, 60 min
  Increase in the absorption at 481 nm: 6705 ± 532 arb. units
NAG 0.05 mg/ml, HSL 5 μg, 60 min
  Increase in the absorption at 481 nm: 705 ± 61 arb. units
NAG 0.05 mg/ml, HSL 20 μg, 60 min
  Increase in the absorption at 481 nm: 3002 ± 409 arb. units
NAG 0.05 mg/ml, HSL 40 μg, 60 min
  Increase in the absorption at 481 nm: 11547 ± 912 arb. units
NAG 0.075 mg/ml, HSL 5 μg, 60 min
  Increase in the absorption at 481 nm: 1121 ± 107 arb. units
NAG 0.075 mg/ml, HSL 20 μg, 60 min
  Increase in the absorption at 481 nm: 768 ± 502 arb. units
